Tests used:
[1] = system: creatinine (Cr) and blood urea nitrogen (BUN); assay: Cr and urea nitrogen in serum and liver of hyperuricemic mice (renal function); format: in vivo, Balb/C mice; settings: AL
Description: (§1) Due to the presence of uricase in mice, a hyperuricemic mouse model was established by using uricase inhibitor and large amounts of purine. Mice were randomly divided into five groups (n=10), including the control group (NC), model group (MC), 20 mg/kg of AL (Shimao Tianjie Pharmaceutical Co. Ltd, Jiangsu, China) group, 10 μg BHA group (10BHA) and 50 μg BHA group (50BHA). Oral administration of AL and intraperitoneal injection of BHA were administered according to the required dose, and all mice were gavage fed 20 g/kg yeast extract powder 12 h prior to the administration of AL and BHA except for NC mice for 8 days. From the 6th to 8th day, 1-h prior to AL and BHA administration, 300 mg/kg of OXO (Sigma, USA) was intraperitoneally injected to all of the mice except those in the control group. At 1 h after the final drug administration, blood was sampled from caudal veins of the mice, serum was separated and their livers were quickly collected (FIG. 3A, E). All samples were stored at −80° C. until assay measurements were performed.
(§2) The levels of reactive oxygen species (ROS, 43355), malondialdehyde (MDA, 43124) glutathione peroxidase (GSH-Px, 43390), superoxide dismutase (SOD, 43125), catalase (CAT, 43356), creatinine (Cr, 43353) and blood urea nitrogen (BUN, 43352) in the serum and livers of mice were determined using ELISA Kits (Yuanye Bio-Technology Co. Ltd, Shanghai, China) according to the manufacturer's instructions.

hyperuricemic mice = assay: Serum UA in OXO- and yeast extract-induced hyperuricemic mice; format: in vivo, Balb/C mice; settings: 20 mg/kg AL oral, P<0.01
Description: (§3) Male Balb/C mice (n=50, 8 weeks: 18-22 g), purchased from Yisi Experimental Animal Technology Company Ltd, Jilin, China (SCXK (Ji)-2016-0003). These mice were housed in plastic cages and maintained on a 12-h light/12-h dark cycle (lights on 7:00-19:00 h) under standard laboratory conditions of 55% relative humidity and 23±1° C. They were given standard feed and tap water ad libitum. All experimental procedures were approved by the Animal Ethics Committee of Jilin University (Reference NO. 201605).
Due to the presence of uricase in mice, a hyperuricemic mouse model was established by using uricase inhibitor and large amounts of purine. Mice were randomly divided into five groups (n=10), including the control group (NC), model group (MC), 20 mg/kg of AL (Shimao Tianjie Pharmaceutical Co. Ltd, Jiangsu, China) group, 10 μg BHA group (10BHA) and 50 μg BHA group (50BHA). Oral administration of AL and intraperitoneal injection of BHA were administered according to the required dose, and all mice were gavage fed 20 g/kg yeast extract powder 12 h prior to the administration of AL and BHA except for NC mice for 8 days. […]
(§4) The serum UA concentrations and XO levels in the serum and liver were determined with a standard diagnostic kit (MAK077, MAK078 Sigma, USA) according to the manufacturer's instructions.

[2] = system: factors related to oxidative stress; assay: Factors related to oxidative stress in serum and liver of hyperuricemia mice (ELISA); format: in vivo, Balb/C mice
Description: as §1, §2

xanthine oxidase (XO) = assay: XO levels in serum and liver of hyperuricemic mice; format: in vivo, Balb/C mice; settings: AL 20 mg/kg; P<0.05
Description: as §1, §4

[3] = system: rats with MSU-induced gouty arthritis; assay: Dose screening on MSU crystals-induced acute gout in rats: ankle swelling ratio; format: in vivo, Wistar rats; settings: n=6, COL 0.3 mg/kg, at 4 h only, P<0.05
Description: as §3, with “48 male Wistar rats (8” for “Male Balb/C mice (n=50, 8”, “180-200” for “18-22”, “(Ji)-2016-0003),” for “(Ji)-2016-0003). These mice”, “23° C.±1°” for “23±1°”, “chow” for “feed”
An experimental model of MSU-induced gouty arthritis was used in order to evaluate the anti-inflammatory activities of BHA similar as previous studies with some modifications. Rats were randomly divided into eight groups (n=6), including control group (NC), model group (MC), 0.3 mg/kg colchicine group (COL), 5 μg BHA group (5BHA), 10 μg BHA group (10BHA), 25 μg BHA group (25BHA), 50 μg BHA group (50BHA), 100 μg BHA group (100BHA). MSU crystals were suspended in 0.9% sterile saline (30 mg/mL) prior to use. Rats in the colchicine group were orally administered colchicine (0.3 mg/kg) for 8 days. At day 6, MSU solution (100 μL of 30 mg/mL) was intra-articular injected at the right ankles of all rats except the NC group m which were injected with saline solution. 5BHA, 10BHA, 25BHA, 50BHA and 100BHA groups received intra-articular injections of 5, 10, 25, 50, or 100 μg BHA along with MSU solution (100 μL of 30 mg/mL MSU solution contains 5, 10, 25, 50 or 100 μg BHA) were administered according to the stated BHA doses.
The right ankle circumference of all rats at 0, 4, 12, 24 and 48 h after MSU injection was measured. The swelling ratio (%) was used for evaluating the gouty arthritis and calculated according to the change of the circumference following the formula: Swelling ratio (%)=(Ct−C0)/C0. Wherein, Ct represented the circumference at t hour and C0 represented the circumference at 0 hour.

[4] = system: rats with MSU-induced acute gout; assay: MSU crystal-induced acute gout in rats: ankle swelling ratio; format: in vivo, Wistar rats; settings: COL 0.3 mg/kg; at 12 h; P<0.05
Description: Male Wistar rats (n=50, 8 weeks: 160-200 g) were purchased from Liaoning Changsheng Biotechnology Company Ltd, Jilin, China (SCXK (Liao)-2015-0001). These rats were housed in plastic cages and maintained on a 12-h light/12-h dark cycle (lights on 7:00-19:00 h) under standard laboratory conditions of 55% relative humidity and at 23° C.±1° C. They were given standard chow (Liaoning Changsheng Biotechnology Company Ltd, Jilin, China) and tap water ad libitum. All experimental procedures were approved by the Animal Ethics Committee of Jilin University (Reference NO. 201605).
(§5) An experimental model of MSU-induced gouty arthritis was used in order to evaluate the anti-inflammatory activities of BHA. Rats were randomly divided into five groups (n=10), include a control group (NC), a model group (MC), a 0.3 mg/kg colchicine group (COL), a 10 μg BHA group (10BHA) and a 50 μg BHA group (50BHA). MSU crystals were suspended in 0.9% sterile saline (30 mg/mL) prior to use. The colchicine group rats were orally administrated colchicine (0.3 mg/kg) for 8 days, and all rats except for the control group were injected with 3 mg of MSU (Sigma, USA) at the 6th day into the right ankle synovial space 1 h after gavage feeding. Meanwhile a turbid sample of MSU mixed with 100 μg of BHA or 500 μg of BHA per mL of solution for 10BHA rats or 50BHA rats. At the 8th day, 1 h after the administration of the final agents, blood was sampled from the caudal veins of the rats and the right ankle joints of the rats were collected and fixed in 4% paraformaldehyde. Serum was separated and stored at −80° C. prior to analysis (FIG. 2A, E).
The right ankle circumferences of all rats at 0, 4, 12, 24 and 48 h after MSU injection were measured. The swelling ratio (%) was used to evaluate the gouty arthritis and calculated according to the change of the circumference via the formula: Swelling ratio (%)=(Ct−C0)/C0, wherein, Ct represented the circumference at time t (in h) and C0 represented the circumference at 0 h.

[5] = system: inflammatory cell infiltration in the synovium; assay: Histopathological assessment of ankle joint synovium (H&E) in MSU crystal-injected rats; format: in vivo, Wistar rats; settings: COL 0.3 mg/kg; MSU crystal-injected rats; H&E
Description: In one study, a histopathological assessment was conducted of synovium in ankle joints of rats after H&E staining. The right ankles of […] were excised and fixed in 4% paraformaldehyde, and subsequently decalcified using 10% ethylenediaminetetraacetic acid. They were then dehydrated via processing in alcohol/xylene mixtures with different proportions and concentrations. The histological sections were stained with hematoxylin and eosin. The histopathological changes of the joint synovium were assessed for the degree of inflammatory cell infiltrate, by an experienced histopathologist. Microscopy at magnifications of 40×, 100×, 200× and 400× were investigated for typical areas for each of the five groups.
The right ankles of rats were collected and fixed in 4% paraformaldehyde, and subsequently decalcified using 10% ethylenediaminetetraacetic acid. They were then dehydrated by processing in alcohol/xylene mixtures with different proportions and concentrations. The histological sections were later stained with hematoxylin and eosin for observation under an optical microscope (200×). The histopathological changes were analyzed with regard to deformaties of the joint synovium and infiltration by inflammatory cells into the ankle.

inflammation factors = assay: Serum inflammation factors by ELISA in rats with MSU-induced acute gout; format: in vivo, Wistar rats
Description: as §5
The serum levels of interleukin-1α (IL-1α, 41734), IL-1β (43360), interleukin-6 (IL-6, 41731), interleukin-8 (IL-8, 41716), IL-10 (41736), interleukin-16 (IL-16, 41628), C—X—C motif chemokine 10 (CXCL10, 41570), monocyte chemoattractant protein 1 (MCP-1, 41640), macrophage inflammatory protein 1α (MIP-1α, 41645), interferon gamma (IFN-γ, 41739), TNF-α (41721), tumor necrosis factor-β (TNF-β, 41673), nuclear factor κ-light-chain-enhancer of activated B cells (NF-κB, 43358), 6-keto-prostaglandin F-1α (6-Keto-PGF1α, 41809) and prostaglandin E2 (PGE2, 41609) in rats were determined by the ELISA method using related Elisa Kits (Yuanye Bio-Technology Co. Ltd, Shanghai, China) according to the manufacturer's instructions.

[6] = hyperuricemia mice, AL 20 mg/kg oral, mean ± S.D., n=10
[7] = serum, MSU-induced acute gout rats, COL 0.3 mg/kg oral 8 days, mean ± S.D., n=10

## Oc1ncnc2[nH]ncc12 [AL, allopurinol, reference compound]
[1]; P<0.01
  lowering of Cr in the liver: 15.28%
[1]; hyperuricemic mice, P<0.05
  lowering of Cr in the serum: 11.52%
  lowering of urea nitrogen in the liver: 25.25%
Hyperuricemic mice
  suppression of serum UA level: 46.38%
[2]; AL, hyperuricemic mice, P<0.05
  suppression of MDA level in the liver: 13.47%
  suppression of MDA level in the serum: 6.66%
  suppression of ROS level in the liver: 17.86%
  suppression of ROS level in the serum: 9.48%
[2]; [6]
  Liver CAT: 12.9 ± 1.3 U/mg
  Liver GSH-PX: 66.1 ± 7.2 U/mg
  Liver MDA: 3.1 ± 0.2 nmol/mg
  Liver ROS: 63.2 ± 6.2 U/mg
  Liver SOD: 48.5 ± 3.4 U/mg
  Serum CAT: 41.6 ± 5.6 U/mL
  Serum GSH-PX: 231.8 ± 7.7 U/mL
  Serum MDA: 10.2 ± 0.5 nmol/mL
  Serum ROS: 240.9 ± 23.9 U/mL
  Serum SOD: 159.2 ± 8 U/mL
Xanthine oxidase (XO)
  reduction of XO levels in the serum compared to untreated mice: 23.76%

## COc1cc2c(c(OC)c1OC)-c1ccc(OC)c(=O)cc1[C@@H](NC(C)=O)CC2 [COL, colchicine, reference compound]
[3]
  swelling of the ankle compared to MSU treated group: significantly suppressed swelling of the ankle
[4]
  ankle swelling compared to the MSU treated group: suppressed ankle swelling
[5]
  pathological changes (inflammatory cell infiltration) in synovium: partially prevented the pathological changes
Inflammation factors; COL 0.3 mg/kg, P<0.05
  decrease of serum MCP-1 compared to rats injected with MSU: 9.93%
Inflammation factors; [7]
  6-Keto-PGF1α: 266.3 ± 12.7
  IFN-γ: 88.2 ± 35 pg/mL
  IL-1α: 74.3 ± 12.6 pg/mL
  IL-1β: 19.1 ± 1.2 pg/mL
  IL-6: 74.7 ± 7.9 pg/mL
  IL-8: 222.7 ± 11.5 pg/mL
  IL-10: 11.5 ± 0.7 pg/mL
  IL-16: 416.7 ± 16.1 pg/mL
  IP-10: 153.5 ± 20.3 pg/mL
  MCP-1: 311.5 ± 20.8 pg/mL
  MIP-1α: 294.6 ± 21.5 pg/mL
  NF-κB: 494.6 ± 132. pg/mL
  PGE2: 207.7 ± 10^ pg/mL
  TNF-α: 154.8 ± 8.5 pg/mL
  TNF-β: 124.8 ± 10.5 pg/mL

Reference: patent US11679123B2, “N-acylated hyaluronic acid for hyperuricemia and gouty arthritis” (Queen's University at Kingston, priority 2018, dated 2023)
